Patent US7935714B2, “Compositions for sleeping disorders” (Bright Future Pharmaceutical Laboratories, priority 2004, dated 2011)

Tested on: male Wistar rats
Assay: Telemetry EEG study of NREM sleep (sleep latency and quality) in freely moving male Wistar rats
Format: in vivo
Conditions: for sleep latency / NREM sleep during the second hour following treatment / NREM sleep within the first hour following treatment: zolpidem
Protocol: Telemetric EEG, activity and temperature monitors were surgically implanted sub-coetaneously onto the lower backs of male Wistar rats, under ketamie and xyalsine (75/10 mg/kg, i.p.) anaesthesia. A skin incision was made above the scull and the transmitter tunnelled subcutaneously from the neck to the lower back with blunted scissors. The EEG leads were placed into two 0.5 mm holes that were drilled stererotaxically 2 mm anterior to Lambda and 1 mm to the left and right of centre, so that contact was made with the durra, and fixed with quick drying glue and reinforced with dental cement. The incision was then closed with 4-0 silk suture and post operative temgesic applied for pain relief. Following a 4 week recovery and acclimatization period in individually housed ventilated cages (12 hour light/12 hour dark cycle 20-25° C.), the rats were orally treated with either test compounds, positive controls or vehicle 45-30 min prior commencement of their light cycle (sleeping period). A Latin square dosing regiment was used where each rat received each of the drugs tested in random order with 4 days clearance time between each dosing. EEG waveforms were analysed using a power spectral analysis of each 5 second epoch and scored manually into % duration of NREM sleep for each hour over a 12 hour period. […] Data were analysed using Two-way ANOVA versus vehicle treatment (*p<0.05, n=7).

[1] = p.o., zopiclone 5 mg/kg, Compound Mixture 50 mg/kg, compared to vehicle
[2] = p.o., zopiclone 5 mg/kg, Compound Mixture 50 mg/kg, versus vehicle

Structure (SMILES) | NREM sleep during the remainder of the sleep period (5 mg/kg p.o., compared to vehicle) | sleep latency [1] | NREM sleep during the second hour following treatment [2] | NREM sleep within the first hour following treatment [2] | sleep quality during the 6th hour of sleep (5 mg/kg p.o., versus vehicle) | NREM sleep duration during the 8th hour [2]
Cc1ccc(-c2nc3ccc(C)cn3c2CC(=O)N(C)C)cc1 [zolpidem] | failed to significantly improve NREM sleep | significantly reduce sleep latency | not significantly different from vehicle treatment | significantly increased | – | –
CN1CCN(C(=O)OC2c3nccnc3C(=O)N2c2ccc(Cl)cn2)CC1 (stereo not drawn) [zopiclone] | – | significantly reduce sleep latency | not significantly different from vehicle treatment | significantly increased | negative effect on sleep quality | significantly improved
